In patent US11672792B2, “Topical formulations comprising montelukast and combinations with mussel adhesive proteins” (ENLITISA (SHANGHAI) PHARMACEUTICAL CO., LTD, priority 2017, dated 2023):

Test system: carrageenan-induced acute inflammation in subcutaneous air pouch
Assay: Air Pouch Model II (Example 2)
Type: in vivo, mice
Description: In Table 6, “Dex” is an abbreviation for dexamethasone and “Dopamine” is a 4 mg/mL aqueous solution of dopamine hydrochloride (Shanghai Aladdin Bio-Chem Technology Co., Ltd., Shanghai, China).
The histological specimens were analysed and an inflammation score, an activity score and a fibroplastic proliferation score were estimated as in Example 1 above and are tabulated in Table 9 below.

[1] = Dex 400 μg, Dopamine 2 mg, MAP 250 μg, Mon 100 μg
[2] = doses/mouse: Dex 400 μg, Dopamine 2 mg, MAP 250 μg, Mon 100 μg

## Cl.NCCc1ccc(O)c(O)c1 [Dopamine, dopamine hydrochloride]
[1]
  Activity score: 1.67
  Edema Score: 2.33
  Fibroplastic proliferation score: 0.00
  IFN-γ in exudate (ELISA): 5153.02 ± 5773.45
  IL-6 in exudate (ELISA): 1740.11 ± 765.02
  Inflammation score: 2.00
  Leukocyte count in exudate: 1.91e+06 mL⁻¹
  Lymphocyte count in exudate: 50000 mL⁻¹
  Monocyte count in exudate: 1.58e+06 mL⁻¹
  Neutrophil count in exudate: 190000 mL⁻¹
  Sum (of histology scores): 6.00
[2]
  Exudate volume: 2.93 ± 0.06 mL
  Pouch Wall Weight: 0.44 ± 0.07 g
histology
  pouch wall fibrous tissue proliferation (in words): no fibrous tissue proliferation
  pouch wall inflammatory / lymph cell infiltration (in words): a lot of
  pouch wall interstitial edema (in words): mild to moderate
